Measurements reported in a melting point compilation (Tetko et al.; mined from patent text by program, amines drawn as free bases though some values may be those of a salt).

SMILES | melting point
CNC(=NS(C)(=O)=O)NCCSCc1csc(NC(N)=NCC(F)F)n1 | 85 to 89 °C
CN1C(=O)C(c2c[nH]c3ncccc23)=C(c2cn(S(=O)(=O)c3ccccc3)c3ncccc23)C1=O | 198 °C
Oc1ncc(-c2cccc(Cl)c2)cn1 | 235 to 236 °C
N#Cc1cnc2c(sc3ccccc32)c1Oc1ccc(Cl)cc1F | 174 to 175 °C
CCCN(CCC)Cc1csc(-c2ncn3c2[C@@H]2CCN2C(=O)c2c(Cl)cccc2-3)n1 | 200 to 201 °C
CSc1c(F)cc(C(=O)CBr)cc1F | 30.5 to 33.2 °C
COc1cccc(Cl)c1C1SC(=O)NC1=O (configuration not stated) | 195 to 197 °C
CC(C)(C)c1cc(-c2n[nH]c(=O)o2)cc(C(C)(C)C)c1O | 246 °C
O=c1[nH]c2cccnc2n1-c1ccncc1 | 265 to 267 °C
CC(=O)Nc1ccc(Cl)c(O)c1 | 212 °C
CC(C)(CC(O)(Cn1cc(Br)c(=O)c2sccc21)C(F)(F)F)c1cccc2c1OCO2 (configuration not stated) | 197 to 198 °C
Cn1c(=O)cc(CCc2ccc(Cl)s2)c2cc(C(O)(c3ccc(Cl)cc3)c3cccnc3)ccc21 (configuration not stated) | 110 °C
CC1(C)C(=O)Nc2ccc(-c3ccc([N+](=O)[O-])s3)cc21 | 223 to 225 °C
CCOC=Nc1sc2c(c1C#N)CCN(C)C2 | 88 to 89 °C
COc1ccc(Oc2cnc(N)nc2N)c(C(C)C)c1 | 170 to 171 °C
C=CCNC(=O)N1CC(Oc2ccc(C(F)(F)F)cc2Cl)C1 | 102 to 104 °C
O=C1c2ccccc2-c2c1c1ccccc1c(=O)n2CCCCCCCCCCNS(=O)(=O)c1ccccc1 | 128 to 130 °C
Clc1cc(Cl)c2nccc(Br)c2c1 | 164 to 166 °C
O=C(O)c1cc(F)c(F)cc1Nc1ccc(F)cc1F | 215 to 216 °C
CCO/C=C/C(=O)Nc1cccc(Br)c1OC | 102 to 104 °C
Cc1ccc(OCC(O)CNC(C)C)nc1 (configuration not stated) | 62 to 67 °C
CCCCOc1ccc(-c2nnc(Nc3ccc(Cl)c(Cl)c3)s2)cc1 | 233 to 235 °C
Cc1cc(Br)c(C)cc1N | 92 to 93 °C
O=C=Nc1cc(Cl)c(Br)cc1CBr | 48 to 50 °C
CN(CCCCCCCNC(=NCCSCc1csc(NC(=N)N)n1)NC#N)CCN(Cc1ccc(F)cc1)c1ccccn1 | 118 °C
CC1(C)C(c2ccc(O)cc2)C1(Cl)Cl (configuration not stated) | 111 to 112 °C
Cc1nc(C(C)C)c(Sc2cccc(Cl)c2)[nH]1 | 91 to 94 °C
Cc1nc(Cl)c([N+](=O)[O-])c(NC(C)C)n1 | 77 to 79 °C
O=C1CC2c3ccccc3CCN2C2CCCC12 (configuration not stated) | 101 to 102 °C

Results, then the compound that gave them:

melting point | SMILES
132 to 134 °C | O=S(=O)(CCCN1CCN(c2ncc(F)cn2)CC1)c1ccc(F)cc1
240 to 241 °C | COc1cc(CN/C=C2\C(=O)NC(=O)c3ccc(-c4ccc(Oc5ccccc5)cc4)cc32)cc(O)c1OC
272 to 274 °C | Cc1nc2c3c(c(CO)cc2n1C)CCC1(Cc2ccccc2C1)N3
198 to 200 °C | CSc1cc2c(cc1C(F)(F)F)N(C(=O)Nc1cccc(C(=O)NCCN3CCOCC3)c1)CC2
145 to 150 °C | NC(=O)C(CCCC(NC(=O)OCc1ccccc1)C(=O)O)NC(=O)OCc1ccccc1 (configuration not stated)
209 to 210 °C | CN1CCC(NC(=O)c2cccc3nc(-c4ccccc4)oc23)CC1
210 to 211 °C | NC(=O)c1nc(-c2ccccc2)c[nH]1
118 to 119 °C | CC(C)(C)OC(=O)NCCCCn1c(=O)c2cccc3ncc(c1=O)n32
216 °C | O=C1OC(c2ccccc2)C2CCc3cc(O)ccc3N12 (configuration not stated)
178 °C | COc1cc2c(cc1OC)CN(CCc1cccc(NC(=O)c3cccc4c(=O)c5cccc(F)c5[nH]c34)c1)CC2
217 to 218 °C | COc1ccccc1N1CCN(CCCn2c(=O)[nH]c3sccc3c2=O)CC1
> 250 °C | CC1(C)C=Cc2c(O)cc(-c3cc4ccc(O)cc4o3)cc2O1
186 to 188 °C | CCCn1cc(C(=O)NCc2ccc(Cl)cc2)c(=O)c2cc(CCl)sc21
130 °C | COc1cc2c(cc1OC)CC(=O)N(CCCN(C)C1CCc3cc(Cl)c(Cl)cc3C1)CC2 (configuration not stated)
100 to 101 °C | CCc1nc2c(N)nc3cc(OCc4ccc(S(=O)(=O)NCCc5cc6ccccc6[nH]5)cc4)ccc3c2s1
208 to 210 °C | C[Si](C)(C)c1ccc2cc(C(=O)Nc3ccc(N4CCC4)nc3)n(Cc3cccc(F)c3)c2c1
185 to 187 °C | O=C1N(CCO)c2ccccc2C(c2ccccc2)N1C1CCN(Cc2cccc(CO)c2)CC1 (configuration not stated)
203 to 205 °C | O=C(Nc1ccc(CP(=O)(O)O)cc1)C1=Cc2cc(C3CCCCC3)ccc2CC1
155 to 158 °C | CS(=O)CC(C)(C)NC(=O)c1c(I)cccc1-c1ccc(C(F)(F)F)cc1 (configuration not stated)
218 to 221 °C | O=C(/C=C/c1c[nH]c2ccc(OCc3ccccc3)cc12)c1ccncc1
89 to 91 °C | COC(=O)c1ccc(Oc2nn(Cc3ccccc3)c3ccccc23)o1
175 to 176 °C | CCOc1cc2c(cc1OCC)C1(CCC(C(=O)O)(C(=O)O)CC1)N(C(=O)OCc1ccccc1)CC2

melting point | SMILES
176 to 178 °C | O=C(Nc1ccc(S(=O)(=O)Cl)cc1)c1ccccc1
31 to 33 °C | Nc1ccc(Oc2ccccc2)c(Cl)c1
165 to 167 °C | CCN1CC(NC(=O)Nc2cc(Cl)cc(Cl)c2)CN1CC
123 to 125 °C | CN(C(=O)OC(C)(C)C)c1cc(Oc2ccc(-c3ccc(OCc4ccccc4)cc3)cc2)ccc1[N+](=O)[O-]
150 to 152 °C | CC1(C)CC=C(Nc2ccccc2Cl)C(=O)C1
154 to 159 °C | O=C(O)C[C@H](C(=O)N[C@H](CO)Cc1ccccc1)n1cc(-c2ccc(-c3ccccc3)cc2)cn1
245 to 248 °C | CCOc1cc2c(Nc3cc(OC)c(Cl)cc3Cl)c(C#N)cnc2cc1NC(C)=O
123 to 124 °C | Cc1cc(C)nc(NC(=O)Cc2ccsc2)c1
196 to 198 °C | CN1CCC(c2cccc3c2C[C@H](NC(=O)c2ccc(N4CCOCC4)cc2)CC3)CC1
130 to 133 °C | CCOc1cc2c(cn1)[nH]c1ccccc12
114 to 115 °C | CS(=O)(=O)C(C(=O)OCc1ccccc1)(C(=O)OCc1ccccc1)N1C(=O)C(NC(=O)Cc2ccccc2)C1CN=[N+]=[N-] (configuration not stated)
130 to 132 °C | CCOC(=O)C(C#N)=Cc1c(Cl)n(Cc2cccc(Cl)c2)c2ccccc12
122 °C | Cc1ccc(-c2ccccc2S(N)(=O)=O)cc1
77 to 79 °C | Cc1ccc(N(C)C(=O)Cc2ccccc2)s1
105 to 106 °C | CC(C)(C)NC(=O)[C@@H]1Cc2ccccc2CN1C(=O)OCc1ccccc1
129 to 134 °C | O=c1c(CO)cc(-c2ccc3c(c2)CCO3)nn1Cc1ccc(Cl)cc1
34 to 35 °C | CCOC(=O)/C=C\C=C(c1ccccc1)c1ccccc1
> 300 °C | COc1cc2[nH]c(=O)c(C(=O)O)nc2cc1-n1ccc(CNC(=O)Nc2ccc(C(=O)O)cc2)c1
177 to 178 °C | Cc1oc(-c2ccccc2)nc1COc1ccc(COc2ccc(CCC(=O)O)cc2)cc1
151 to 153 °C | COc1ccc(OCC(O)CN2CCC3(CC2)CNC(=O)O3)cc1 (configuration not stated)
137 °C | Nc1cc(Oc2cccc(O)c2)ccc1[N+](=O)[O-]
